Patent US20040072206A1, “Method for identifying modulators of transcription” (priority 2000, published 2004)

Tests used:
T7 RNAP = target: T1, T7 RNAP (Escherichia phage T7, UniProt P00573); assay: Dual reporter assay in strain PL37: control reporter PT7X-gus; type: cell-based, bacteriophage T7; conditions: strain PL37, FIG. 5
T1 construct: expressed in transfected cells; host or cells: Bacillus subtilis PL37, with Pspac-rpoT7 integrated in the chromosome and induced by IPTG
Procedure: (§1) 20 known antibiotics were tested at a range of concentrations to determine their effect on test and control reporters within the assay. […] Cultures of PL37 grown in PAB, were diluted to 0.05 A600 and then grown for 2 hours at 37° C. in PAB supplemented with 0.02 mM IPTG. Cells were pelleted and frozen. They were later resuspended and diluted in PAB supplemented with 0.02 mM IPTG and grown at 37° C. to early exponential phase. Cultures were then diluted to 0.05 A600 in PAB and added in 20 μl volumes to wells of microtitre plates containing 20 μl volumes of the antibiotics. Plates were incubated at 37° C. for two hours, and assay mix was added to detect reporter enzyme activity (see below).
(§2) Following the addition of 160 μl of assay mix (1.3×Z buffer containing 94 μg/ml lysozyme, 8.4 μg/ml 4-methylumbelliferyl-β-D-galactoside, 0.53 μg/ml resorufin-β-D-glucuronide and 0.05% Triton) to each well, the microtitre plate was incubated in the dark for 30 mini or 1 hour at room temperature. Fluorescence was read on a BMG FLUOstar Galaxy at excitation/emission 355/460 nm and 544/590 nm, respectively, with gains set at 5 and 25, respectively.

B. subtilis RNAP = target: T2, B. subtilis RNAP (Bacillus subtilis, UniProt P37870+P37871); assay: Dual reporter assay in strain PL37: test reporter Pxyl-lacZ and ratio of control to test reporter (RES:MUG); type: cell-based; conditions: for Ratio of the control reporter (RES): test reporter (MUG): strain PL37, DMSO control […]
T2 construct: endogenous in cells; host or cells: Bacillus subtilis strain PL37 (built from strain 168)
Procedure: as §1, §2

bacterial RNA polymerase = target: T3, bacterial RNA polymerase (Bacillus subtilis, UniProt P37870+P37871); assay: Dual reporter assay in strain X (xylose-induced lacZ and T7 RNAP-driven gus reporters); type: cell-based; conditions: 30 min incubation
T3 construct: endogenous in cells; host or cells: Bacillus subtilis strain X (derivative of strain 168)
Text: The strain X is a derivative of the standard laboratory strain of Bacillus subtilis 168. It has been modified in three ways.
1. It carries a xylose-inducible promoter driving transcription of the well known reporter gene lacZ, encoding the enzyme β-galactosidase. The reporter gene is silent or expressed at low levels in the absence of xylose because the endogenous XylR protein binds to the promoter region, reducing the ability of RNAP to initiate transcription. On addition of xylose or similar sugar, the repressor leaves the promoter allowing RNAP to transcribe the gene strongly, resulting in increased synthesis of β-galactosidase. A simple colourigenic substrate, ONPG was used to detect the formation of the enzyme.
2. Strain X also carries a second reporter gene comprising a promoter recognised by the RNAP of bacteriophage T7. This promoter has been modified so as to be recognised and repressed by the same XylR repressor as controls the first reporter. Consequently, the promoter cannot be utilised by T7 RNAP unless xylose is present. […]
The assay was done by growing a culture of strain X in the absence of xylose and then dispensing aliquots of culture into the wells of a microtitre plate. […] The plate was incubated for 30 min to allow accumulation of the two reporter enzymes, then the cells were lysed and the two enzyme activities were measured.

T2 sequence (P37871 whole entry): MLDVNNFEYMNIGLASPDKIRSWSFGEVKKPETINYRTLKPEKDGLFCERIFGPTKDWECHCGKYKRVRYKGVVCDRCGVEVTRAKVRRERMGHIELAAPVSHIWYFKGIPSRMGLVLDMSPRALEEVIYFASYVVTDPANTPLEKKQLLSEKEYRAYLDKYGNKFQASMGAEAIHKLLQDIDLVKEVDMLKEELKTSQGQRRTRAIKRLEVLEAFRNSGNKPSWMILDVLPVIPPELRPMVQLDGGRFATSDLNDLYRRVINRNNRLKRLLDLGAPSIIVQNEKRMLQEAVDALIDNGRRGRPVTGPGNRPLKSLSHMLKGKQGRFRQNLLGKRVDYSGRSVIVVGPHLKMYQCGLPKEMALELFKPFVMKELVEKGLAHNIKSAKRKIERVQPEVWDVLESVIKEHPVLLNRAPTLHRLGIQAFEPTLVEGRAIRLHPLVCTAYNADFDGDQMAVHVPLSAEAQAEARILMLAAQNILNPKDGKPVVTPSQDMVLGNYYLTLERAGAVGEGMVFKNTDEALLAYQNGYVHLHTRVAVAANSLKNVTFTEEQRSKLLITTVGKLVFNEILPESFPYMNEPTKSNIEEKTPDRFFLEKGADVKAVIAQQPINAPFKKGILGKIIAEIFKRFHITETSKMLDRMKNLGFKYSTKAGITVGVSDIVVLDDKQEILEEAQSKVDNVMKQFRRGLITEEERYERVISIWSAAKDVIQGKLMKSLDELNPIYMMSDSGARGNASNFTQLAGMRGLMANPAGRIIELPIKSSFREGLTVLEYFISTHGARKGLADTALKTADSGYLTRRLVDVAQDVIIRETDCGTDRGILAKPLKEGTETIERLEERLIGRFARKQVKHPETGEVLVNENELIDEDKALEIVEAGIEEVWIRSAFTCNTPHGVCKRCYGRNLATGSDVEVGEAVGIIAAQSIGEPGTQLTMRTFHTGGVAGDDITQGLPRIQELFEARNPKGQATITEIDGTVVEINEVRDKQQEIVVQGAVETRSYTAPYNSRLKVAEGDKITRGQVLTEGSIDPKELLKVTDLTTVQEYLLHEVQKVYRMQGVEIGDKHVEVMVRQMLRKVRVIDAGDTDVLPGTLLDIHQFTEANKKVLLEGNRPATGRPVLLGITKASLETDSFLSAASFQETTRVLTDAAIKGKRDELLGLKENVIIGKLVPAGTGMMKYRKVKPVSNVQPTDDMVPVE
T2 sequence (P20429 whole entry, further chain): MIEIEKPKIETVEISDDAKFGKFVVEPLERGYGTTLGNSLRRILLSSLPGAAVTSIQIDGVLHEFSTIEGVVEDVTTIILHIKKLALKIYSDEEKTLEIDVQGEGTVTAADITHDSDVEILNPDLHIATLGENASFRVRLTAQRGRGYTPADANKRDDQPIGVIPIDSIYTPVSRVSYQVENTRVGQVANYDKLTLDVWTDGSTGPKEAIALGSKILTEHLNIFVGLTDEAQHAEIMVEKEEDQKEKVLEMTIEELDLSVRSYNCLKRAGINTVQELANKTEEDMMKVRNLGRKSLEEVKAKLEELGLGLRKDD
T2 sequence (O35011 whole entry, further chain): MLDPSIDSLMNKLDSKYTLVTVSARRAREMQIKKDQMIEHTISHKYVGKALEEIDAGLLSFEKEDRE
T2 sequence (P37870 whole entry): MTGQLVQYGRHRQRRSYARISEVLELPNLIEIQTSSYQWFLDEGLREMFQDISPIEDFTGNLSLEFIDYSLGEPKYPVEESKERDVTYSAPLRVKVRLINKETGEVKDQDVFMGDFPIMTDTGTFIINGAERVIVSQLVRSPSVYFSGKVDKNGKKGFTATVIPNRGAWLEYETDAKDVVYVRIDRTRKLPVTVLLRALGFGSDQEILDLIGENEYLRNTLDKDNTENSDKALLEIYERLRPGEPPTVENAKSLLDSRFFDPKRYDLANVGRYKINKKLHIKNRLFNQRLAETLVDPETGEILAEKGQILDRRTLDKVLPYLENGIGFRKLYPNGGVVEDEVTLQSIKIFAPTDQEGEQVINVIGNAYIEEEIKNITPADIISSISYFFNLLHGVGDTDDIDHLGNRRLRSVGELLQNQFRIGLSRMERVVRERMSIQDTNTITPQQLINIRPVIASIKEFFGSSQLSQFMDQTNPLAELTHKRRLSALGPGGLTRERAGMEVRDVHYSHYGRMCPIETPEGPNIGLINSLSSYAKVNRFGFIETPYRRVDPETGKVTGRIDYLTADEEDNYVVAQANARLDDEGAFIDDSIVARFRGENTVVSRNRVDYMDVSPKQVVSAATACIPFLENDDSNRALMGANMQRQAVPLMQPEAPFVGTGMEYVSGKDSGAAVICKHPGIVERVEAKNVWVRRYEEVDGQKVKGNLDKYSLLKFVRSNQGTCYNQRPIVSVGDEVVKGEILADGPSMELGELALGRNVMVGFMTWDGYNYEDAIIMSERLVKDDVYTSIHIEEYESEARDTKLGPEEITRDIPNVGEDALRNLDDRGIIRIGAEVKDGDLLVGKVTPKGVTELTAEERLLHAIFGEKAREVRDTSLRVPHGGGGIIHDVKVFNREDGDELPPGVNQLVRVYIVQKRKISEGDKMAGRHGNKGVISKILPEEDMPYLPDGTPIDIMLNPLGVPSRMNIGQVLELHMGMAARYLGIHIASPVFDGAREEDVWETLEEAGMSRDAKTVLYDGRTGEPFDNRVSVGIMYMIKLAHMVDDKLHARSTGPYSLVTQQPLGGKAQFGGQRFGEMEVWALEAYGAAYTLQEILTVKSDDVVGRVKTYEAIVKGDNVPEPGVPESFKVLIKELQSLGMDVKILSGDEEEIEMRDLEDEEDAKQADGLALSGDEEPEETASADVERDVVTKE
T1 sequence (P00573 whole entry): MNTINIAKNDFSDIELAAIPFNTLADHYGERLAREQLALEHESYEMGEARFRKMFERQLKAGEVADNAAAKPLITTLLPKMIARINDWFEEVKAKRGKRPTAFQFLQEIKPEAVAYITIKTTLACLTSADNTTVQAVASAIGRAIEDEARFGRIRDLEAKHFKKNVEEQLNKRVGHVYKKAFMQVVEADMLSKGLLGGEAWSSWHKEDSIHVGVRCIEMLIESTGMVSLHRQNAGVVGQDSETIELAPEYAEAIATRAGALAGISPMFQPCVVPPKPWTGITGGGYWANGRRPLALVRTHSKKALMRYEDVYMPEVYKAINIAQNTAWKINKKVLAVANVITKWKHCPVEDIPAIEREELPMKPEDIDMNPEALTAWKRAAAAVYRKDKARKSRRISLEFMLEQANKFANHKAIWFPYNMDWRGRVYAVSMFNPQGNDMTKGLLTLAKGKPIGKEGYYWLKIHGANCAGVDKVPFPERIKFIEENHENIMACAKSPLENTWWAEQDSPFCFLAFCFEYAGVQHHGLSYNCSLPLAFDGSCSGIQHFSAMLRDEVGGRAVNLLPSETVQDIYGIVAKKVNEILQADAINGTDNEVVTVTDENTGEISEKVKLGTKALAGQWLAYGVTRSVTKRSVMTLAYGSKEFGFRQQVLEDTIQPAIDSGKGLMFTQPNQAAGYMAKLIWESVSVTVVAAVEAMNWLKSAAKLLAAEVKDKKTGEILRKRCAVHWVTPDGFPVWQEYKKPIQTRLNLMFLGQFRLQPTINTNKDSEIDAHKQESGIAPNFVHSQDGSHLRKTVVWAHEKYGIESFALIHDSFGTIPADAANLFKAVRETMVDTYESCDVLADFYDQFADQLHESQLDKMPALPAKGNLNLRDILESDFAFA
T3 sequence (O35011 whole entry): as the sequence (O35011 whole entry, further chain) above
T3 sequence (P20429 whole entry, further chain): as the sequence (P20429 whole entry, further chain) above
T3 sequence (P37870 whole entry): as the sequence (P37870 whole entry) above
T3 sequence (P37871 whole entry): as the sequence (P37871 whole entry) above

Structure (SMILES): CNC(=O)[C@@H](C)[C@H]1C(=O)/C(=C(O)/C=C/C(C)=C/[C@@H](C)[C@H]2O[C@@]3(C)O[C@H](C=C[C@@]34CO4)[C@@H]2C)C(=O)N1[C@@H]1CC[C@H](O)[C@H](C)O1 [Streptolydigin]
- Expression of the T7 RNAP-dependent control reporter (T7 RNAP): increased
- Expression of the test reporter, xyl-lacZ (B. subtilis RNAP; strain PL37, FIG. 6): reduced drastically
- RES:MUG ratio compared with the no antibiotic control (DMSO) (B. subtilis RNAP; strain PL37, Table 2, FIG. 7): greater than that of the no antibiotic control (DMSO) at several concentrations
- Detection as specific inhibitor of RNA polymerase (B. subtilis RNAP; strain PL37, antibiotic panel): detected as specific inhibitors of RNA polymerase
- Ratio of the control reporter (RES): test reporter (MUG) (B. subtilis RNAP; Dilution Number 1 (highest concentration tested: 128, 16 or 0.5 μg/ml depending on antibiotic)): 16.44
- Ratio of the control reporter (RES): test reporter (MUG) (B. subtilis RNAP; Dilution Number 2): 16.68
- Ratio of the control reporter (RES): test reporter (MUG) (B. subtilis RNAP; Dilution Number 3): 14.07
- Ratio of the control reporter (RES): test reporter (MUG) (B. subtilis RNAP; Dilution Number 4): 10.22
- Ratio of the control reporter (RES): test reporter (MUG) (B. subtilis RNAP; Dilution Number 5): 4.88
- Ratio of the control reporter (RES): test reporter (MUG) (B. subtilis RNAP; Dilution Number 6): 2.53
- Ratio of the control reporter (RES): test reporter (MUG) (B. subtilis RNAP; Dilution Number 7): 1.74
- Ratio of the control reporter (RES): test reporter (MUG) (B. subtilis RNAP; Dilution Number 8): 1.41
- Ratio of the control reporter (RES): test reporter (MUG) (B. subtilis RNAP; Dilution Number 9): 1.27
- Ratio of the control reporter (RES): test reporter (MUG) (B. subtilis RNAP; Dilution Number 10): 1.23
- Ratio of the control reporter (RES): test reporter (MUG) (B. subtilis RNAP; Dilution Number 11 (lowest concentration tested: 0.125, 0.016 or 0.0005 μg/ml depending on antibiotic)): 1.16
- Reporter enzyme activities (β-galactosidase and β-glucuronidase) (bacterial RNA polymerase): only the reporter enzyme driven by the T7 RNAP (β-glucuronidase) was active
